Measured values published in patent publication US10919885B2, “Compounds and uses thereof” (Yumanity Therapeutics, Inc., priority 2018, dated 2021).

Legend:
human SCD1 = human SCD1 (Homo sapiens (Human), UniProt O00767); assay: Yeast growth assay, strain expressing human SCD1 as the sole desaturase (reduced growth as surrogate for SCD inhibition); assay type: cell-based; conditions: yeast with OLE1 deleted expressing human SCD1 from a plasmid; growth read as OD600 after 40 h at 30° C.; top drug concentration 33.3 μM
human SCD1, sequence (O00767 whole entry): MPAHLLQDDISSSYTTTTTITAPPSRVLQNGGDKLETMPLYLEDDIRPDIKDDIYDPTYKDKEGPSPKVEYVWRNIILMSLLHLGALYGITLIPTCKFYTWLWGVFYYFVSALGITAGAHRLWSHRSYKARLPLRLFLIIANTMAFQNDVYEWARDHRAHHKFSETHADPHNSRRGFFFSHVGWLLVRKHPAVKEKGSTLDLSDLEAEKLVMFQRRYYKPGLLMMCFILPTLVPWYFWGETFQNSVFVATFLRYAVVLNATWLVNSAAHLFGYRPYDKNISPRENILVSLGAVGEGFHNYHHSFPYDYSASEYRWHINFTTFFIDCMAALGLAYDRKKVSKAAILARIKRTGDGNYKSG
Summary of the method: (§1)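 Yeast lacking OLE1 depend on plasmid-borne human SCD1 or SCD5 and are tested in SD-Ura medium without oleic/palmitoleic acid or Tween.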

human SCD5 = human SCD5 (Homo sapiens (Human), UniProt Q86SK9); assay: Yeast growth assay, strain expressing human SCD5 as the sole desaturase (reduced growth as surrogate for SCD inhibition); assay type: cell-based; conditions: yeast with OLE1 deleted expressing human SCD5 from a plasmid; growth read as OD600 after 40 h at 30° C.; top drug concentration 33.3 μM
human SCD5, sequence (Q86SK9 whole entry): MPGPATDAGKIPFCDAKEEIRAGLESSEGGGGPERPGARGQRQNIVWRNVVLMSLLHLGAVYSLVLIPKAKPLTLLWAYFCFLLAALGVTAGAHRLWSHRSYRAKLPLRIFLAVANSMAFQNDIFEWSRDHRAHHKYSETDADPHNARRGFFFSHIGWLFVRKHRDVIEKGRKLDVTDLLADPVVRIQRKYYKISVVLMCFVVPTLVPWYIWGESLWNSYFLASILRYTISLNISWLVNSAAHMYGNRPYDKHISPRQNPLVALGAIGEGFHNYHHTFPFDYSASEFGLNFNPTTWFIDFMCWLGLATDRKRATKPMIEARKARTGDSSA
Summary of the method: as §1

| Compound | IC50 (human SCD1) | IC50 (human SCD5) |
| --- | --- | --- |
| Cc1cc(C2CCCN2C(=O)c2cc(-c3ccco3)on2)on1 (stereo not shown) [Compound 357] | > 45 µM | > 45 µM |
| CC(C)c1cc(C(=O)N2CC(c3ccccc3)C2)no1 [Compound 250] | > 45 µM | > 45 µM |
| O=C(c1cc(-c2ccc3c(c2)OCO3)on1)N1CCC1c1ccc(F)cc1 (stereo not shown) [Compound 223, [5-(1,3-benzodioxol-5-yl)isoxazol-3-yl]-[2-(4-fluorophenyl)azetidin-1-yl]methanone] | > 45 µM | 3.26 µM |
| O=C(Nc1cnn(Cc2ccccn2)c1)c1cc(-c2ccccc2)on1 [Compound 40] | > 45 µM | > 45 µM |
| O=C(Nc1cnn(CC2CCOCC2)c1)c1cc(-c2ccco2)on1 [Compound 31] | > 45 µM | > 45 µM |
| O=C(Nc1ccccc1)C1CCCN1C(=O)c1cc(-c2ccc3c(c2)OCO3)on1 (stereo not shown) [Compound 455] | > 45 µM | > 45 µM |
| O=C(c1cc(-c2ccc3c(c2)OCO3)on1)N1CCC(c2ccncc2)CC1 [Compound 293] | > 45 µM | > 45 µM |
| N#Cc1ccc(-c2cc(C(=O)N3CCC[C@H]3c3ccccc3)no2)cc1 [Compound 404] | > 45 µM | > 45 µM |
| O=C(Nc1cnn(Cc2cc(F)ccc2C(F)(F)F)c1)c1cc(-c2ncccc2F)on1 [Compound 107] | > 45 µM | > 45 µM |
| Cc1csc(-c2cc(C(=O)Nc3cnn(Cc4ccccc4)c3)no2)n1 [Compound 143] | > 45 µM | > 45 µM |
| CC(C)c1cc(C(=O)Nc2cc3ccccn3n2)no1 [Compound 176] | > 45 µM | > 45 µM |
| O=C(Nc1cnn(Cc2ccccc2)c1)c1cc(-c2ccncc2F)on1 [Compound 147, N-(1-benzyl-1H-pyrazol-4-yl)-5-(3-fluoropyridin-4-yl)isoxazole-3-carboxamide] | > 45 µM | 7.4 µM |
| O=C(NC1CCN(Cc2ccccc2)C1)c1cc(-c2ccco2)on1 (stereo not shown) [Compound 337] | > 45 µM | > 45 µM |
| CCOC(=O)c1cc(-c2cc(C(=O)Nc3cnn(Cc4cccc(F)c4)c3)no2)on1 [Compound 155] | > 45 µM | > 45 µM |
| CC(c1ccccc1)n1cc(NC(=O)c2cc(-c3ccccc3)on2)cn1 (stereo not shown) [Compound 51] | > 45 µM | > 45 µM |
| CN1CCC2(CCN(C(=O)c3cc(-c4ccccc4)on3)C2)C1 (stereo not shown) [Compound 342] | > 45 µM | > 45 µM |
| Cc1cc(C2CCCN2C(=O)c2cc(-c3ccc4c(c3)OCO4)on2)on1 (stereo not shown) [Compound 353] | > 45 µM | > 45 µM |
| O=C(Nc1cnn(Cc2cccnc2)c1)c1cc(-c2ccccc2)on1 [Compound 39] | > 45 µM | > 45 µM |
| CCOC(=O)c1cc(C(=O)Nc2cnn(Cc3ccccc3)c2)on1 [Compound 151] | > 45 µM | > 45 µM |
| Cc1nnc(-c2cc(C(=O)Nc3cnn(Cc4ccccc4)c3)no2)o1 [Compound 165] | > 45 µM | > 45 µM |
| O=C(Nc1cnn(Cc2ccc(Cl)c(Cl)c2)c1)c1cc(-c2ccco2)on1 [Compound 29] | > 45 µM | > 45 µM |
| O=C(c1cc(-c2ccc3c(c2)OCO3)on1)N1CCCC1c1ccncc1 (stereo not shown) [Compound 363] | > 45 µM | > 45 µM |
| O=C(c1cc(-c2ccc3c(c2)OCO3)on1)N1CCCC1c1ccc(F)cn1 (stereo not shown) [Compound 272] | > 45 µM | > 45 µM |
| O=C(NC1CCNC1)c1cc(-c2ccco2)on1 (stereo not shown) [Compound 336] | > 45 µM | > 45 µM |
| COc1cccc(N2CCN(C(=O)c3cc(-c4ccc5c(c4)OCO5)on3)CC2)c1 [Compound 271, (5-(benzo[d][1,3]dioxol-5-yl)isoxazol-3-yl)(4-(3-methoxyphenyl)piperazin-1-yl)methanone] | > 45 µM | 4.71 µM |

Next, values leading:

| IC50 (human SCD1) | IC50 (human SCD5) | Compound |
| --- | --- | --- |
| > 45 µM | > 45 µM | CC(C)(c1ccccc1)n1cc(NC(=O)c2cc(-c3ccccc3)on2)cn1 [Compound 64] |
| > 45 µM | 2.79 µM | O=C(c1cc(-c2ccco2)on1)N1CCC(c2ccccc2)C1 (stereo not shown) [Compound 338] |
| > 45 µM | > 45 µM | CNC(=O)c1ccc(-c2cc(C(=O)N3CC=C(c4ccccc4)CC3)no2)cc1 [Compound 319] |
| 32.4 µM | > 45 µM | O=C(c1cc(-c2ccc3ncnn3c2)on1)N1CCC[C@H]1c1ccccc1 [Compound 441] |
| > 45 µM | > 45 µM | O=C(c1ccccc1)N1CCN(C(=O)c2cc(-c3ccc4c(c3)OCO4)on2)CC1 [Compound 281] |
| > 45 µM | > 45 µM | Nc1cc(C(=O)Nc2cnn(Cc3ccccc3)c2)no1 [Compound 192] |
| > 45 µM | > 45 µM | Cn1cc(NC(=O)c2cc(-c3ccco3)on2)cn1 [Compound 10] |
| > 45 µM | > 45 µM | COc1ccc(-c2cc(NC(=O)[C@@H]3CCCN3c3ccccc3)on2)cc1 [Compound 445] |
| 29 µM | > 45 µM | CC(=O)N1CCN(c2cc(C(=O)Nc3cnn(Cc4ccccc4)c3)no2)CC1 [Compound 184] |
| > 45 µM | > 45 µM | Cc1nn(C)c2cc(-c3cc(C(=O)N4CCN(c5ccccc5)CC4)no3)ccc12 [Compound 278] |
| > 45 µM | > 45 µM | N#Cc1ccc(CN(C(=O)c2cc(-c3ccccc3)on2)c2cnn(Cc3ccc(C#N)cc3)c2)cc1 [Compound 47] |
| > 45 µM | > 45 µM | Cc1ccncc1Cn1cc(NC(=O)c2cc(-c3ccccc3F)on2)cn1 [Compound 172] |
| > 45 µM | > 45 µM | O=C(c1cc(-c2ccc3c(c2)OCO3)on1)N1CCC1c1ccccc1F (stereo not shown) [Compound 218] |
| 36.8 µM | > 45 µM | O=C(c1cc(-c2ccnnc2)on1)N1CCC[C@H]1c1ccccc1 [Compound 433] |
| > 45 µM | > 45 µM | O=C(Nc1ccccc1)C1CN(C(=O)c2cc(-c3ccccc3)on2)C1 [Compound 237] |
| 0.084 µM | > 45 µM | O=C(Nc1cnn(Cc2cccc(F)c2)c1)c1cc(-c2ccon2)on1 [Compound 72] |
| 0.15 µM | 2.7 µM | CC(C)(C)c1cc(C(=O)Nc2cnn(Cc3ccccc3)c2)no1 [Compound 118, N-(1-benzyl-1H-pyrazol-4-yl)-5-(tert-butyl)isoxazole-3-carboxamide] |
| 2.41 µM | 2.69 µM | O=C(Nc1cnn(Cc2cccc(F)c2)c1)c1cc(-c2ccncc2)on1 [Compound 56, N-(1-(3-fluorobenzyl)-1H-pyrazol-4-yl)-5-(pyridin-4-yl)isoxazole-3-carboxamide] |
| 29.4 µM | > 45 µM | Cn1ccc(-c2cc(C(=O)N3CCC[C@H]3c3ccccc3)no2)cc1=O [Compound 428] |
| 30.4 µM | 4.92 µM | O=C(c1cc(-c2ccc3c(c2)OCO3)on1)N1CCCC12CC2 [Compound 371] |
| 0.264 µM | 0.305 µM | COc1ccc(-c2cc(C(=O)N3CC(c4ccccc4)C3)no2)nc1 [Compound 242, (5-(5-methoxypyridin-2-yl)isoxazol-3-yl)(3-phenylazetidin-1-yl)methanone] |
| 8.2 µM | > 45 µM | O=C(Nc1cnn(Cc2cccc(F)c2)c1)c1cc(-c2nncs2)on1 [Compound 174] |
